This is an account of results in patent US9855255B1, “Substituted naphthyridinyl hydrazines as anti-liver cancer agents” (KING SAUD UNIVERSITY, priority 2017, dated 2018).

What is called IC50 is the concentration that gives 50% inhibition. A word on the melting point: it is the temperature of the solid-liquid transition.

Data set [1] is described as follows: Effect on biochemical parameters in mice serum. Conditions: single i.p. 12 mg/kg, blood after 7 days; for Albumin / Bilirubin / Cholestrol / Creatinine / Globulin / Total Lipids / Triglycerides / Alanine amino transferase ALT / Alkaline phosphatase ALP / Aspartate amino transferase AST: Mean + S.D.; for Alanine amino transferase ALT / Alkaline phosphatase ALP / Aspartate amino transferase AST: 12 mg/kg. It is filed as in vivo. The source says: Male albino mice, weighing 18-20 g each, were used in a study. The mice were divided into three main groups, as follows. Group 1 is the untreated control group (5 mice); Group 2 is divided into two subgroups (5 mice in each subgroup), treated with either 5-FU (5-Fluorouracil) or DOX (Doxorubicin) as reference anticancer drugs. Group 3 is divided into ten subgroups (5 mice for each subgroup) and treated with the present substituted naphthyridinyl hydrazine compounds. The mice were housed in wide cages and well aerated rooms, and fed standard diets and clean water. Blood collection from the animals was done with heparinized cannula, and the mice were left alive.
For treatment, in Group 1, each mouse was given a single intraperitoneal (i.p.) injection of 0.1 mL DMSO; in Group 2, each mouse was given a single i.p. injection of 0.1 mL containing 12 mg/kg body weight of 5-FU or DOX dissolved in sterile water; and in Group 3, each mouse was given a single intraperitoneal injection of 0.1 mL containing 12 mg/kg body weight of the selected furan derivatives dissolved in 0.01% DMSO. Blood was collected after 7 days from all mouse groups.
The biochemical effects of formula 1 compounds on some liver enzymes in mouse blood serum was studied. Effects on aspartate and alanine aminotransferases (AST and ALT), and alkaline phosphatase (ALP), were examined using a blood auto analyzer, Olympus AV 400, Japan. Moreover, albumin, globulins, creatinine, total lipids, cholesterol, triglycerides, and bilirubin were evaluated, in comparison to treatment using 5-FU or DOX. Statistical analysis of the results was performed using Chi-square values (SPSS computer program).

The subject of another data set is HepG2 (Liver). The experiment in a line: MTT cell proliferation and viability assay on liver HEPG2 cancer cell line. It counts as cell-based. Particulars: Homo sapiens, 48 hours, read-out: IC50 cytotoxic activity. How it is done:
In the following examples, human cancer cell line HepG2 (Liver) was grown in DMEM media supplemented with 10% bovine serum, 1× penicillin-streptomycin (Sigma-Aldrich) at 37° C. in a humidified chamber with 5% CO2. 5-Flurourasil (Sigma-Aldrich) was used as the reference drug (standard).
Cells were seeded (1×10^5 cells/well in triplicate) in a 96-well flat-bottom plate (Becton-Dickinson Lab ware) a day before treatment and grown. Stocks of all extracts/compounds (1.0 mg/ml) were made with 5% DMSO (Sigma-Aldrich), and further working solutions (100 μg/ml) were prepared in serum-free culture media. Cells were treated with four different doses (2, 6.2, 12.5, and 25 μg/ml; in triplicate) of the compounds in complete growth media, including reference drug, and further incubated for 48 hours.
On day 2 of treatment, cell proliferation and viability test was performed using TACS MTT Cell Proliferation and Viability Assay Kit (TACS), as per manufacturer's instructions. The relationship between surviving fraction and compound concentration was plotted to obtain the survival curve of cancer cell lines. The response parameter calculated was the IC50 value, which corresponds to the concentration required for 50% inhibition of cell viability.

The subject of data set [2] is various human cancer cell lines. The experiment in a line: Single-dose screening against a variety of human cancer cell lines. It is filed as cell-based. Conditions: leukemia, non-small cell lung, colon, CNS, melanoma, ovarian, renal, prostate, breast cancer cell lines. From the text: FIGS. 5A and 5B are a chart showing results of single-dose screening for various human cancer cell lines treated with compound 6 (a substituted naphthyridinyl hydrazine according to the present invention).

Another data set concerns HepG2 cells. The experiment in a line: Phase contrast microscopy of morphological changes in HepG2 cells. It is filed as cell-based, human. Conditions: for Morphological changes of HepG2 cells: 10 μg. How it is done:
The cells were seeded in 6-well plates and allowed to adhere at 37° C. in a CO2 incubator. After 24 h, each well was treated with 10 μg compound and incubated for the indicated time. After 24 and 48 hrs, the cells were imaged by phase contrast microscope (Olympus CLX 41) to visualize morphological changes in HepG2 cells.
A. The cells were seeded in 6-well plates and allowed to adhere at 37° C. in CO2 incubator. After 24 h, each well was treated with 10 μg of compound 6 and incubated for the indicated time. After 24 and 48 hrs, the cells were imaged by phase contrast microscope (Olympus CLX 41) to visualize morphological changes in HepG2 cells.
A. Change in HepG2 cells after treatment with compound 6 was studied for morphological variations using the phase contrast microscopy.
Many characteristic features occur in cells undergoing a series of biochemical events during apoptosis. Various morphological changes, such as blebbing, loss of membrane asymmetry, cell shrinkage, nuclear fragmentation, chromatin condensation, and chromosomal DNA fragmentation occur.

A further data set concerns HeLa cells. The experiment in a line: Phase contrast microscopy of morphological changes in HeLa cells. It is filed as cell-based. Particulars: after 12 and 24 hrs. The procedure:
B. Similar studies were done with HeLa cells. Cells were seeded in 6-well plates and allowed to adhere at 37° C. in CO2 incubator. After 24 h, each well was treated with 4.6 μM 2,6P-OLA and incubated for the indicated time. After 12 and 24 h, the cells were imaged by phase contrast microscope (Olympus CLX 41) to visualize morphological changes in HeLa cells.
B. Change in LeLa cells after treatment with compound 6 was also studied for morphological variations using the phase contrast microscopy.

Values after ≈ are worked out from the molar mass of the structure shown. Bounds are passed on as bounds.

Take `O=c1[nH]cc(F)c(=O)[nH]1` [Compound 5-FU, 5-Fluorouracil]: in data set [1], the A/G ratio was found to be 1.13, the Albumin worked out at 6.49 ± 0.92 mg/d1, the Bilirubin came out at 0.75 ± 0.10 mg/dL and the Cholestrol came to 105.9 ± 11.7 mg/dL. Further, in data set [1], the Creatinine is 0.81 ± 0.06 mg/dL, the Globulin was determined as 5.75 ± 0.8 mg/dL, the “Total Lipids” value was 378.2 ± 31.4 mg/dL and the Triglycerides stood at 126.5 ± 19.4 mg/dL. Also, the IC50 in the data set on HepG2 (Liver) was 5 µg/mL (≈ 38.4 µM).

Turning to `Cc1ccc2c(N/N=C/c3ccccc3[N+](=O)[O-])cc(C)nc2n1` [Compound 6, (E)-2-(2-Nitrobenzylidene)-1-(2,7-dimethyl-1,8-naphthyridin-5-yl)hydrazine], the melting point fell in the range of 255 to 256 °C. For the same compound, in data set [1], the A/G ratio worked out at 1.23, the Albumin was 7.73 ± 0.52 mg/d1, the Bilirubin was determined as 0.76 ± 0.15 mg/dL and the Cholestrol amounted to 93.24 ± 19.53 mg/dL. For the same compound, in data set [1], the Creatinine came to 0.71 ± 0.21 mg/dL, the Globulin came out at 6.25 ± 0.82 mg/dL, the “Total Lipids” value worked out at 326.32 ± 19.3 mg/dL and the Triglycerides worked out at 110.54 ± 17.8 mg/dL. Also, in data set [1], the “Alanine amino transferase ALT” value is on record as 46.09 ± 6.13 IU/ml, the “Alkaline phosphatase ALP” value is recorded as 21.59 ± 3.42 k.k./dl and the “Aspartate amino transferase AST” value worked out at 112.81 ± 9.88 IU/ml. Also, in data set [1] (listed as new compound), the “Alanine amino transferase ALT” value is listed as “non-significant (n.s.) or slightly higher”, the “Alkaline phosphatase ALP” value is on record as “no significant changes” and the “Aspartate amino transferase AST” value is “non-significant (n.s.) or slightly higher”. The IC50 in the data set with HepG2 (Liver) was 0.885 µg/mL (≈ 2.75 µM). The “Cancer cell growth in single-dose screening” value in data set [2] is recorded as “significant decreases in cancer cell growth”. Besides, the “Morphological changes of HepG2 cells” value in the data set with HepG2 cells (24 hours, FIG. 7B) is “onset of apoptotic characteristics”. The “Morphological changes of HepG2 cells” value in the data set with HepG2 cells (48 hours, FIG. 7C) was “blebbing and loss of basal attachment and membrane asymmetry is markedly seen”. Besides, in the data set on HepG2 cells (after 24 and 48 hrs, phase contrast microscopy), the “Morphological variations of HepG2 cells” value is “Changes in surface morphology”. In addition, the “Morphological variations of HeLa cells” value in the data set on HeLa cells is listed as “Changes in surface morphology were observed”.

Consider `Cc1ccc2c(N/N=C3\C(=O)Nc4ccccc43)cc(C)nc2n1` [Compound 8b, (3Z)-3-[2-(2,7-Dimethyl-1,8-naphthyridin-4-yl)hydrazinylidene]-1,3-dihydro-2H-indol-2-one], for which the melting point is greater than 300 °C.

With `Cc1ccc2c(N/N=C3\C(=O)Nc4ccc(Cl)cc43)cc(C)nc2n1` [Compound 8c, (3Z)-5-Chloro-3-[2-(2,7-dimethyl-1,8-naphthyridin-4-yl)hydrazinylidene]-1,3-dihydro-2H-indol-2-one], the melting point was greater than 300 °C.

On to `COc1cccc2c1C(=O)c1c(O)c3c(c(O)c1C2=O)C[C@@](O)(C(=O)CO)C[C@@H]3O[C@H]1C[C@H](N)[C@H](O)[C@H](C)O1` [Doxorubicin], for which, in data set [1], the A/G ratio is 1.078, the Albumin amounted to 6.37 ± 0.85 mg/d1, the Bilirubin turned out to be 0.81 ± 0.19 mg/dL and the Cholestrol stood at 109.3 ± 14.2 mg/dL. For the same compound, in data set [1], the Creatinine came to 0.78 ± 0.04 mg/dL, the Globulin is 5.91 ± 0.63 mg/dL, the “Total Lipids” value stood at 21.94 ± 3.4 mg/dL and the Triglycerides came to 137.8 ± 17.10 mg/dL. In data set [1], the “Alanine amino transferase ALT” value is 59.26 ± 12.03 IU/ml, the “Alkaline phosphatase ALP” value stood at 30.31 ± 5.14 k.k./dl and the “Aspartate amino transferase AST” value came out at 147.22 IU/ml. Besides, in data set [1] (listed as DOX), the “Alanine amino transferase ALT” value is given as “significantly higher”, the “Alkaline phosphatase ALP” value is on record as “significantly increased” and the “Aspartate amino transferase AST” value was “significantly higher”. Further, the half-maximal inhibitory concentration (IC50) in the data set on HepG2 (Liver) came out at 3.56 µg/mL (≈ 6.55 µM).
